Experimental data as given in patent US4605744A, “Imidazole derivatives” (Hoffmann-La Roche Inc., priority 1985, dated 1986).
Structures can show the parent of a compound that is named as a salt. Where two headings read alike, the source gives them in different places.

What was measured:
Assay type in all cases: cell-based
E. coli 257 = experiment: In vitro antibacterial activity (MIC, Mueller-Hinton broth)
Description: Drug dilutions are prepared in Mueller-Hinton broth ranging from 128 to 0.008 μg/ml. The diluted agents are dispensed in 100 μl amounts into the wells of a 96-well tray and used immediately or frozen at -10° to -70° C. until needed. Using an automated inoculator, 1.5 μl of a 10^-2 dilution of an overnight culture is added to each well of the tray. The tops of the trays are then sealed using transparent tape and incubated overnight at 37° C. The trays are examined with the aid of a viewer. The lowest concentration at which no growth is observed is considered to be the minimum inhibitory concentration (MIC).

C. freundii 8ASM = experiment: In vitro antibacterial activity (MIC); details: C. freundii 8ASM
In short: (§1)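 Overnight cultures, diluted 10^-2, were added at 1.5 μl per well to twofold drug series (128–0.008 μg/ml) in Mueller-Hinton broth.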

E. aerogenes 503-478 = experiment: In vitro antibacterial activity (MIC)
In short: as §1

E. aerogenes 8 = experiment: In vitro antibacterial activity (MIC); details: E. aerogenes 8
In short: as §1

E. cloacae 214 = experiment: In vitro antibacterial activity (MIC)
In short: as §1

E. cloacae 24 = experiment: In vitro antibacterial activity (MIC)
In short: as §1

E. cloacae 5699 = experiment: In vitro antibacterial activity (MIC)
In short: as §1

E. cloacae 6951 = experiment: In vitro antibacterial activity (MIC)
In short: as §1

E. cloacae 9570A = experiment: In vitro antibacterial activity (MIC)
In short: as §1

E. coli 503-455 = experiment: In vitro antibacterial activity (MIC)
In short: as §1

K. pneumoniae 8357 = experiment: In vitro antibacterial activity (MIC)
In short: as §1

P. aeruginosa 5700 = experiment: In vitro antibacterial activity (MIC)
In short: as §1

P. aeruginosa B = experiment: In vitro antibacterial activity (MIC)
In short: as §1

P. aeruginosa POW 151 = experiment: In vitro antibacterial activity (MIC); details: Pseudomonas aeruginosa, POW151
In short: as §1

P. mirabilis 190 = experiment: In vitro antibacterial activity (MIC)
In short: as §1

P. mirabilis 90 = experiment: In vitro antibacterial activity (MIC)
In short: as §1

S. aureus 1059B = experiment: In vitro antibacterial activity (MIC)
In short: as §1

S. aureus Giorgio = experiment: In vitro antibacterial activity (MIC)
In short: as §1

S. faecalis C1 = experiment: In vitro antibacterial activity (MIC); details: S. faecalis C1
In short: as §1

S. marcescens S2 = experiment: In vitro antibacterial activity (MIC); details: S. marcescens S2
In short: as §1

S. marcescens S3 = experiment: In vitro antibacterial activity (MIC); details: S. marcescens S3
In short: as §1

S. marcescens S5 = experiment: In vitro antibacterial activity (MIC)
In short: as §1

S. pneumoniae 6301 = experiment: In vitro antibacterial activity (MIC)
In short: as §1

[1] = Escherichia coli, 257, E. coli 257, read-out: MIC
[2] = Citrobacter freundii, 8ASM, read-out: MIC
[3] = Klebsiella aerogenes, 503478, E. aerogenes 503-478, read-out: MIC
[4] = Klebsiella aerogenes, read-out: MIC
[5] = Enterobacter cloacae, 214, E. cloacae 214, read-out: MIC
[6] = Enterobacter cloacae, 24, E. cloacae 24, read-out: MIC
[7] = Enterobacter cloacae, 5699, E. cloacae 5699, read-out: MIC
[8] = Enterobacter cloacae, 6951, E. cloacae 6951, read-out: MIC
[9] = Enterobacter cloacae, read-out: MIC
[10] = Escherichia coli, 503455, E. coli 503-455, read-out: MIC
[11] = Klebsiella pneumoniae, 8357, K. pneumoniae 8357, read-out: MIC
[12] = Pseudomonas aeruginosa, 5700, P. aeruginosa 5700, read-out: MIC
[13] = Pseudomonas aeruginosa, read-out: MIC
[14] = Proteus mirabilis, 190, P. mirabilis 190, read-out: MIC
[15] = Proteus mirabilis, 90, P. mirabilis 90, read-out: MIC
[16] = Staphylococcus aureus, read-out: MIC
[17] = Staphylococcus aureus, S. aureus Giorgio, read-out: MIC
[18] = Enterococcus faecalis, read-out: MIC
[19] = Serratia marcescens, read-out: MIC
[20] = Serratia marcescens, S5, S. marcescens S5, read-out: MIC

SMILES: CC1(C)S[C@@H]2[C@H](N=CN3CCC(Cn4ccnc4CN)CC3)C(=O)N2[C@H]1C(=O)O [J, [2S-(2alpha,5alpha,6beta)]-6-[[[4-[[2-(aminomethyl)-1H-imidazol-1-yl]methyl]-1-piperidinyl]methylene]amino]-3,3-dimethyl-7-oxo-4-thia-1-azabicyclo[3.2.0]heptane-2-carboxylic acid hydrochloride]
- MIC (E. coli 257; [1]): 0.125 µg/mL
- MIC (C. freundii 8ASM; [2]): 0.125 µg/mL
- MIC (E. aerogenes 503-478; [3]): 8 µg/mL
- MIC (E. aerogenes 8; [4]): 0.5 µg/mL
- MIC (E. cloacae 214; [5]): 1 µg/mL
- MIC (E. cloacae 24; [6]): 0.5 µg/mL
- MIC (E. cloacae 5699; [7]): 4 µg/mL
- MIC (E. cloacae 6951; [8]): 16 µg/mL
- MIC (E. cloacae 9570A; [9]): 0.5 µg/mL
- MIC (E. coli 503-455; [10]): 1 µg/mL
- MIC (K. pneumoniae 8357; [11]): 4 µg/mL
- MIC (P. aeruginosa 5700; [12]): 0.5 µg/mL
- MIC (P. aeruginosa B; [13]): 0.25 µg/mL
- MIC (P. aeruginosa POW 151): > 128 µg/mL
- MIC (P. mirabilis 190; [14]): 0.5 µg/mL
- MIC (P. mirabilis 90; [15]): 1 µg/mL
- MIC (S. aureus 1059B; [16]): > 128 µg/mL
- MIC (S. aureus Giorgio; [17]): 8 µg/mL
- MIC (S. faecalis C1; [18]): 128 µg/mL
- MIC (S. marcescens S2; [19]): 0.25 µg/mL
- MIC (S. marcescens S3; [19]): 0.25 µg/mL
- MIC (S. marcescens S5; [20]): 0.5 µg/mL
- MIC (S. pneumoniae 6301; Streptococcus pneumoniae, 6301, S. pneumoniae 6301, read-out: MIC): 1 µg/mL

SMILES: CC1(C)S[C@@H]2[C@H](N=CN3CCC(CCn4ccnc4)CC3)C(=O)N2[C@H]1C(=O)O [B, [2S-2alpha,5alpha,6beta)]-6-[[[4-[2-(1H-imidazol-1-yl)ethyl]-1-piperidinyl]methylene]amino]-3,3-dimethyl-7-oxo-4-thia-1-azabicyclo[3.2.0]heptane-2-carboxylic acid hydrate hydrochloride]
- MIC (E. coli 257; Escherichia coli, 257): 0.25 µg/mL
- MIC (C. freundii 8ASM; [2]): 0.062 µg/mL
- MIC (E. aerogenes 503-478; [3]): 2 µg/mL
- MIC (E. aerogenes 8; [4]): 0.25 µg/mL
- MIC (E. cloacae 214; [5]): 1 µg/mL
- MIC (E. cloacae 24; Enterobacter cloacae, 24): 2 µg/mL
- MIC (E. cloacae 5699; [7]): 0.5 µg/mL
- MIC (E. cloacae 6951; [8]): 16 µg/mL
- MIC (E. cloacae 9570A; [9]): 0.5 µg/mL
- MIC (E. coli 503-455; Escherichia coli, 503455): 1 µg/mL
- MIC (K. pneumoniae 8357; [11]): 0.25 µg/mL
- MIC (P. aeruginosa 5700; [12]): > 128 µg/mL
- MIC (P. aeruginosa B; [13]): > 128 µg/mL
- MIC (P. aeruginosa POW 151): > 128 µg/mL
- MIC (P. mirabilis 190; [14]): 0.5 µg/mL
- MIC (P. mirabilis 90; [15]): 2 µg/mL
- MIC (S. aureus 1059B; [16]): > 128 µg/mL
- MIC (S. aureus Giorgio; Staphylococcus aureus): 32 µg/mL
- MIC (S. faecalis C1; [18]): > 128 µg/mL
- MIC (S. marcescens S2; [19]): 0.5 µg/mL
- MIC (S. marcescens S3; [19]): 0.5 µg/mL
- MIC (S. marcescens S5; [20]): 2 µg/mL
- MIC (S. pneumoniae 6301; Streptococcus pneumoniae, 6301): 4 µg/mL

SMILES: CC1(C)S[C@@H]2[C@H](N=CN3CCC(Cc4ncc[nH]4)CC3)C(=O)N2[C@H]1C(=O)O [Q, [2S-(2alpha,5alpha,6beta)]-6-[[[4-(1H-imidazol-2-yl-methyl)-1-piperidinyl]methylene]amino]-3,3-dimethyl-7-oxo-4-thia-1-azabicyclo[3.2.0]heptane-2-carboxylic acid hydrochloride]
- MIC (E. coli 257; [1]): 0.062 µg/mL
- MIC (C. freundii 8ASM; [2]): 0.062 µg/mL
- MIC (E. aerogenes 503-478; [3]): 16 µg/mL
- MIC (E. aerogenes 8; [4]): 0.125 µg/mL
- MIC (E. cloacae 214; [5]): 0.5 µg/mL
- MIC (E. cloacae 24; [6]): 0.5 µg/mL
- MIC (E. cloacae 5699; [7]): 4 µg/mL
- MIC (E. cloacae 6951; [8]): 16 µg/mL
- MIC (E. cloacae 9570A; [9]): 0.125 µg/mL
- MIC (E. coli 503-455; [10]): 1 µg/mL
- MIC (K. pneumoniae 8357; [11]): 4 µg/mL
- MIC (P. aeruginosa POW 151): > 128 µg/mL
- MIC (P. mirabilis 190; [14]): 0.25 µg/mL
- MIC (P. mirabilis 90; [15]): 0.5 µg/mL
- MIC (S. aureus 1059B; [16]): 128 µg/mL
- MIC (S. aureus Giorgio; [17]): 8 µg/mL
- MIC (S. marcescens S2; [19]): 0.125 µg/mL
- MIC (S. marcescens S3; [19]): 0.125 µg/mL
- MIC (S. marcescens S5; [20]): 0.5 µg/mL

SMILES: CC1(C)S[C@@H]2[C@H](N=CN3CCCC(CCn4ccnc4)CC3)C(=O)N2[C@H]1C(=O)O.Cl.O (single isomer, unassigned) [D]
- MIC (E. coli 257; E. coli 257): 0.125 µg/mL
- MIC (C. freundii 8ASM): 0.062 µg/mL
- MIC (E. aerogenes 503-478; E. aerogenes 503-478): 8 µg/mL
- MIC (E. aerogenes 8): 128 µg/mL
- MIC (E. cloacae 214; E. cloacae 214): 0.25 µg/mL
- MIC (E. cloacae 24; E. cloacae 24): 0.5 µg/mL
- MIC (E. cloacae 5699; E. cloacae 5699): 0.5 µg/mL
- MIC (E. cloacae 6951; E. cloacae 6951): 16 µg/mL
- MIC (E. cloacae 9570A): 0.5 µg/mL
- MIC (E. coli 503-455; E. coli 503-455): 1 µg/mL
- MIC (K. pneumoniae 8357; K. pneumoniae 8357): 0.25 µg/mL
- MIC (P. aeruginosa 5700; P. aeruginosa 5700): 0.5 µg/mL
- MIC (P. aeruginosa B): 0.25 µg/mL
- MIC (P. mirabilis 190; P. mirabilis 190): 0.25 µg/mL
- MIC (P. mirabilis 90; P. mirabilis 90): 1 µg/mL
- MIC (S. aureus 1059B): 128 µg/mL
- MIC (S. aureus Giorgio; S. aureus Giorgio): 16 µg/mL
- MIC (S. faecalis C1): > 128 µg/mL
- MIC (S. marcescens S2): 0.5 µg/mL
- MIC (S. marcescens S3): 0.5 µg/mL
- MIC (S. marcescens S5; S. marcescens S5): 2 µg/mL
- MIC (S. pneumoniae 6301; S. pneumoniae 6301): 4 µg/mL
